According to patent US10034915B2, “Small heat shock proteins and active fragments thereof as a therapy for inflammation and ischemia” (The Board of Trustees of the Leland Stanford Junior …, priority 2011, dated 2018):
“Also recorded” adds a separate entry of the source.

Columns and labels:
EAE mice = experiment: EAE in 129Sv WT mice immunized with MOG35-55/CFA, clinical scoring; assay type: in vivo, mouse; settings: for therapeutic efficacy of peptide in EAE (clinical scores): peptide every other day from peak of disease (10 μg, or 1 μg equimolar to 10 μg protein); for AREA UNDER THE CURVE (amount higher than HSPB5 normalized to PBS): average EAE scores, peptide every other day from peak of disease, 129Sv WT mice, n=5 per group; for EAE clinical scores over the course of the whole experiment (area under the curve): 10 μg sHSP protein IP every other day from peak of disease; for EAE clinical scores over the course of the whole experiment (area under the curve) / clinical paralysis / EAE clinical scores: vs PBS; for clinical paralysis / EAE clinical scores: 10 μg sHSP protein IP every other day starting at the peak of disease
Description: To investigate if the therapeutic efficacy of HSPB5 is a common feature of the whole family of small heat shock proteins, we expressed recombinant HSPB1, HSPB4, and HSPB5. We then treated EAE mice every other day starting at the peak of disease, when clinical paralysis is apparent, with an intraperitoneal (IP) administration of 10 μg of either HSPB1, HSPB4, HSPB5, or PBS as the vehicle control. […] Treating mice in vivo with HSPB1, HSPB4, or HSPB5 led to a reduction in the production of pro-inflammatory cytokines by MOG stimulated splenocytes taken from MOG immunized mice (FIG. 1c). Improvement of the clinical score was dependent on continued dosing of the sHSP. After dosing was stopped, symptoms returned, and paralysis worsened after 96 hours.
Therapeutic Peptides from HSPB5 in EAE. […] We made a series of overlapping, 15-mer peptide fragments of HSPB5 and treated mice at the peak of disease with 10 μg of each peptide every other day, using HSPB5 as a positive control and PBS as a negative control.
EAE induction and scoring. Mice were immunized subcutaneously with 100 μL of myelin oligodendrocyte glycoprotein (MOG) peptide 35-55 (2 mg/mL) and Complete Freund's adjuvant (CFA) (4 mg/mL) on Day 0. […] Mice were randomized at the peak of disease into the treatment groups where they received 10 ug/200 μL of sHSP, 1 μg/200 uL of sHSP peptide, or 200 μL of PBS (vehicle) every other day. Mice were scored every day on a clinical scoring system: 0, healthy mouse; 1, limp tail; 2, weak hindlimbs; 3, complete hindlimb paralysis; 4, weak forelimbs and paralyzed hindlimbs; 5, dead.

[1] = system: pro-inflammatory cytokines of MOG stimulated splenocytes; experiment: Peripheral immune cell activation: cytokine production by MOG stimulated splenocytes of treated MOG immunized mice (ELISA); design: species or system mouse; settings: mice treated in vivo; splenocytes from MOG immunized mice
Description: Peripheral immune cell activation and cytokine analysis. Spleens and lymph nodes were isolated from mice 9 days after immunization with MOG35-55 and CFA. Spleens were mechanically disrupted to isolate single cell splencytes suspension. Cells were cultured in flat bottomed, 96-well plates in media (RPMI 1640 supplemented with […] L-glutamine, 1 mM sodium pyruvate, 0.1 mM non-essential amino acids, 100 U/mL penicillin, 0.1 mg/mL streptomycin, 0.5 uM 2-mercaptoethanol, and 10% fetal calf serum). Cells were stimulated with MOG35-55 (5 ug/mL, 10 ug/mL, and 20 ug/mL). For all activation assays, splenocytes were pooled from three mice per group and triplicate wells were plated. Supernatants of cells were collected at the time of peak production for each cytokine (48 hrs: IL-2, IL-12p40, IL-6; 72 hrs: TNFα and IFNγ; 96 hrs: IL-17; 120 hrs: IL-10). Cytokines were measured in the supernatants using anti-mouse OPTEIA ELISA kits (BD Pharmingen for IFNγ, IL-10, IL-2, IL-6, and IL-12p40; R&D Systems for IL-17 and TNFα).

mice with EAE = experiment: EAE in C57BL/6J mice (MOG35-55/CFA, pertussis toxin), neurological impairment scoring; assay type: in vivo, mouse; settings: intraperitoneal 10-50 μg every other day starting at the peak of disease
Description: It was tested if the chaperone function of residues 73-92 of HspB5 were capable of reducing the symptoms of experimental allergic encephalomyelist (EAE), by inducing EAE in 9-week old female C57BL/6J by immunized subcutaneously with an emulsion containing 200 μg myelin oligodendrocyte glycoprotein 35-55 (MOG35-55; […] (SEQ ID NO:24)) in saline and an equal volume of complete Freund's adjuvant. Intraperitoneal injection of pertussis toxin at 0 and 48 h post-immunization results in paralysis beginning at day 12.

[2] = system: partially denatured proteins; settings: in vitro, literature; cited from earlier work

Molecule | AREA UNDER THE CURVE (amount higher than HSPB5 normalized to PBS) (EAE mice) | clinical paralysis / EAE clinical scores (EAE mice) | further results
DKFVIFLDVKHFSPEDLTVK [HSPB4 73-92] |  |  | therapeutic efficacy of peptide in EAE (clinical scores) (EAE mice): therapeutic in EAE; therapeutic efficacy of peptide in EAE (clinical scores) (EAE mice; listed as HSPB4 73-93): as therapeutic as full length proteins; production of pro-inflammatory cytokines by MOG stimulated splenocytes [1]: decrease peripheral immune activation
DRWRVSLDVNHFAPDELTVK [HSPB1 73-92] |  |  | therapeutic efficacy of peptide in EAE (clinical scores) (EAE mice): therapeutic in EAE; therapeutic efficacy of peptide in EAE (clinical scores) (EAE mice; listed as HSPB1 73-93): as therapeutic as full length proteins; production of pro-inflammatory cytokines by MOG stimulated splenocytes [1]: decrease peripheral immune activation
EKDRFSVNLDVKHFS (listed as Homo sapiens) [HSPB5 peptide 71-85] | 0.06 |  | therapeutic efficacy of peptide in EAE (clinical scores) (EAE mice): marked therapeutic efficacy
HGFISREFHRKYRIP (listed as Homo sapiens) [HSPB5 peptide 111-125] | 0.33 |  | 
HLLESDLFPTSTSLS (listed as Homo sapiens) [HSPB5 peptide 31-45] | 0.33 |  | 
HSP27 [HSPB1] |  | significantly ameliorated clinical paralysis; also recorded: therapeutic | EAE clinical scores over the course of the whole experiment (area under the curve) (EAE mice): significantly improved; clinical paralysis / clinical scores of mice with EAE (mice with EAE): significant reduction of clinical paralysis; production of pro-inflammatory cytokines by MOG stimulated splenocytes [1]: reduction
HSPB7: recombinant human small heat shock protein |  | ameliorated EAE | 
ITREEKPAVTAAPKK (listed as Homo sapiens) [HSPB5 peptide 161-175] | 0.08 |  | therapeutic efficacy of peptide in EAE (clinical scores) (EAE mice): therapeutic
LTITSSLSSDGVLTV (listed as Homo sapiens) [HSPB5 peptide 131-145] | 0.08 |  | therapeutic efficacy of peptide in EAE (clinical scores) (EAE mice): therapeutic
PPSFLRAPSWFDTGL (listed as Homo sapiens) [HSPB5 peptide 51-65] | 0.10 |  | 
QVSGPERTIPITREE (listed as Homo sapiens) [HSPB5 peptide 151-165] | 0.29 |  | 
RRPFFPFHSPSRLFD (listed as Homo sapiens) [HSPB5 peptide 11-25] | −0.11 |  | therapeutic efficacy of peptide in EAE (clinical scores) (EAE mice): therapeutic
SRLFDQFFGEHLLES (listed as Homo sapiens) [HSPB5 peptide 21-35] | 0.28 |  | 
STSLSPFYLRPPSFL (listed as Homo sapiens) [HSPB5 peptide 41-55] | 0.28 |  | 
αA-crystallin [HSPB4] |  | significantly ameliorated clinical paralysis; also recorded: therapeutic | EAE clinical scores over the course of the whole experiment (area under the curve) (EAE mice): significantly improved; clinical paralysis / clinical scores of mice with EAE (mice with EAE): significant reduction of clinical paralysis; production of pro-inflammatory cytokines by MOG stimulated splenocytes [1]: reduction
Arg120Gly: naturally occurring mutated HSPB5, arginine to glycine at amino acid position 120 (protein, UniProt P02511 1-175, looked up, variant R120G) Alpha-crystallin B chain: MDIAIHHPWIRRPFFPFHSPSRLFDQFFGEHLLESDLFPTSTSLSPFYLRPPSFLRAPSWFDTGLSEMRLEKDRFSVNLDVKHFSPEELKVKVLGDVIEVHGKHEERQDEHGFISREFHGKYRIPADVDPLTITSSLSSDGVLTVNGPRKQVSGPERTIPITREEKPAVTAAPKK |  | did improve clinical scores; also recorded: ameliorated EAE just as well as HSPB5 | production of pro-inflammatory cytokines by MOG stimulated splenocytes [1]: reduction; also recorded: suppressed; molecular chaperone activity [2]: partial loss of molecular chaperone activity
Hsp22 (protein, UniProt O14558 1-160, looked up, recombinant human small heat shock protein) Heat shock protein beta-6: MEIPVPVQPSWLRRASAPLPGLSAPGRLFDQRFGEGLLEAELAALCPTTLAPYYLRAPSVALPVAQVPTDPGHFSVLLDVKHFSPEEIAVKVVGEHVEVHARHEERPDEHGFVAREFHRRYRLPPGVDPAAVTSALSPEGVLSIQAAPASAQAPPPAAAK |  | ameliorated EAE | 
HSPB9: recombinant human small heat shock protein (protein, UniProt Q9BQS6 1-159, looked up) Heat shock protein beta-9: MQRVGNTFSNESRVASRCPSVGLAERNRVATMPVRLLRDSPAAQEDNDHARDGFQMKLDAHGFAPEELVVQVDGQWLMVTGQQQLDVRDPERVSYRMSQKVHRKMLPSNLSPTAMTCCLTPSGQLWVRGQCVALALPEAQTGPSPRLGSLGSKASNLTR |  | ameliorated EAE | 
Hsp20 (protein, UniProt Q9UJY1 1-196, looked up, recombinant human small heat shock protein) Heat shock protein beta-8: MADGQMPFSCHYPSRLRRDPFRDSPLSSRLLDDGFGMDPFPDDLTASWPDWALPRLSSAWPGTLRSGMVPRGPTATARFGVPAEGRTPPPFPGEPWKVCVNVHSFKPEELMVKTKDGYVEVSGKHEEKQQEGGIVSKNFTKKIQLPAEVDPVTVFASLSPEGLLIIEAPQVPPYSTFGESSFNNELPQDSQEVTCT |  | ameliorated EAE | 
HSPB3: recombinant human small heat shock protein (protein, UniProt Q12988 1-150, looked up) Heat shock protein beta-3: MAKIILRHLIEIPVRYQEEFEARGLEDCRLDHALYALPGPTIVDLRKTRAAQSPPVDSAAETPPREGKSHFQILLDVVQFLPEDIIIQTFEGWLLIKAQHGTRMDEHGFISRSFTRQYKLPDGVEIKDLSAVLCHDGILVVEVKDPVGTK |  | ameliorated EAE | 
myotonic dystrophy protein kinase binding protein, MKBP (protein, UniProt Q16082 1-182, looked up, recombinant human small heat shock protein) Heat shock protein beta-2: MSGRSVPHAHPATAEYEFANPSRLGEQRFGEGLLPEEILTPTLYHGYYVRPRAAPAGEGSRAGASELRLSEGKFQAFLDVSHFTPDEVTVRTVDNLLEVSARHPQRLDRHGFVSREFCRTYVLPADVDPWRVRAALSHDGILNLEAPRGGRHLDTEVNEVYISLLPAPPDPEEEEEAAIVEP |  | ameliorated EAE | 
